{"source": "patent US20250170150A1", "about": "“OLFACTORY RECEPTOR 2A4/7 AGONIST FOR PROMOTING HAIR GROWTH AND IMPROVING AESTHETIC ASPECT” (GIULIANI S.P.A., priority 2022, published 2025)", "key": {"[1]": {"system": "microdissected human scalp HFs", "assay": "Organ culture of microdissected human HFs with CHS: OR2A4/7 expression and HF stem cell/progeny number by quantitative (immuno)histomorphometry", "type": "cell-based", "details": "50 μM CHS vs vehicle, 6 days", "protocol": "(§1) Temporal and occipital human scalp skin was obtained from healthy donors (38-69 years old) undergoing routine face-lift surgery. Scalp skin samples were processed for HF microdissection (Edelkamp J, Gherardini J, Bertolini M, Methods to study human hair follicle growth ex vivo: human microdissected hair follicle and human full thickness skin organ culture, Methods Mol. Biol. 2154 (2020) 105-119).\nMicrodissected human scalp HFs were cultured at 37° C. with 5% CO2 in a minimal media of William's E media (WEM, Gibco, Life Technologies) supplemented with 2 mM of L-glutamine (Gibco), 10 ng/ml hydrocortisone (Sigma-Aldrich), 10 μg/ml insulin (Sigma-Aldrich), and 1% penicillin/streptomycin mix (Gibco) 25,26,62. After microdissection, the HFs were first incubated in WEM for 24 h for re-equilibration.\nHFs after quality control (fully pigmented and presence in anagen VI phase) were randomly allocated to the different experimental groups.\nAfter 24 h, WEM mediμm was replaced and HFs were treated with vehicle or 50 μM CHS for 6 days for (immuno) histomorphometry.\nOCT-embedded samples were sectioned (6 μm thickness for HF and 7 μm thickness for skin) with a Leica cryostat. Sections obtained from the organ culture were stained using OR2A4/7 and integrin α-6 antibodies. A double-staining, […] wa salso performed. Sections without primary antibody were used as negative control. […]\nStaining intensity was evaluated in well-defined reference areas by quantitative (immuno-) histomorphometry (Fischer T W, et al. Differential effects of caffeine on hair shaft elongation, matrix and outer root sheath keratinocyte proliferation, and transforming growth factor-B2/insulin-like growth factor-1-mediated regulation of the hair cycle in male and female human hair follicles in vitro. Br. J. Dermatol. 2014;171:1031-1043. doi: 10.1111/bjd.13114.; Samuelov L, et al. P-cadherin regulates human hair growth and cycling via canonical Wnt signaling and transforming growth factor-62. J. Invest. […]"}, "OR2A4/7 [2]": {"system": "OR2A4/7", "details": "screening approach, Tsai et al. 2017; cited from earlier work"}, "[3]": {"system": "microdissected human scalp HFs", "assay": "Organ culture of microdissected HFs with CHS: hair cycle staging and hair matrix keratinocyte proliferation (Ki-67/TUNEL, Masson Fontana)", "type": "cell-based", "details": "50 μM CHS vs vehicle, 6 days", "excerpt": "as §1, with “105-119). […]” for “105-119).”\nOCT-embedded samples were sectioned (6 μm thickness for HF and 7 μm thickness for skin) with a Leica cryostat. […] Images were taken using a Keyence fluorescence microscope BZ9100 (Osaka, Japan) maintaining a constant set exposure time throughout imaging for further analysis.\nHFs were microscopically evaluated for the hair cycle staging analysis using Masson-Fontana histochemistry and Ki-67/TUNEL immunostainings (Langan EA, et al. Human hair follicle organ culture: theory, application and perpsectives. Exp. Dermatol. 2015;24:903-911. doi: 10.1111/exd.12836; Kloepper JE, et al. Methods in hair research: how to objectively distinguish between anagen and catagen in human hair follicle organ culture. Exp. Dermatol. 2010;19:305-312. doi: 10.1111/j.1600-0625.2009.00939.x;). […]"}, "OR2A4/7 [4]": {"system": "OR2A4/7", "assay": "Intracellular Ca2+ signals in human melanocytes", "type": "cell-based"}}, "note": "Entries after “also recorded” stand apart in the source; their conditions may differ.", "data": [{"smiles": "O=C(OC1CCCCC1)c1ccccc1O", "note": "[CHS, cyclohexyl salicylate]", "values": [{"measurement": "OR2A4/7 protein expression in the HF bulb", "setting": "[1]; ex vivo HFs (FIG. 2)", "value": "receptor downregulation"}, {"measurement": "K15+ stem cells in the basal layer of the bulge", "setting": "[1]; ex vivo HFs (FIG. 3a)", "value": "did not seem to impact; also recorded: No differences"}, {"measurement": "CD34+ cells in the suprabulbar ORS", "setting": "[1]; ex vivo HFs (FIG. 3b)", "value": "significantly increased"}, {"measurement": "agonism at OR2A4/7", "setting": "OR2A4/7 [2]", "value": "specific agonist"}, {"measurement": "HFs in anagen (hair cycle staging)", "setting": "[3]; ex vivo HFs (FIG. 4a)", "value": "prolongs anagen; also recorded: increase"}, {"measurement": "hair matrix keratinocyte proliferation (Ki-67)", "setting": "[3]; ex vivo HFs (FIG. 4b)", "value": "induces hair matrix keratinocyte proliferation"}, {"measurement": "intracellular Ca2+ signals", "setting": "OR2A4/7 [4]", "value": "elicited transient intracellular Ca2+ signals"}]}]}
